Experimental data reported in patent publication US5624897A, “Cyclic depsipeptides having 18 ring atoms, and their use for combating endoparasites” (Bayer Aktiengesellschaft, priority 1993, dated 1997).

Assays:
[1] = tested on: Trichostrongylus colubriformis; assay: In vivo nematode test Trichostrongylus colubriformis/sheep; details: experimentally infected sheep, treated after prepatent period; pure active compound orally and/or intravenously; dose at which nematode egg excretion with the faeces stops completely
Method: Trichostrongylus colubriformis/Sheep
Sheep which have been infected experimentally with Trichostrongylus colubriformis were treated after the prepatent period had elapsed. The active compounds in the form of the pure active compound were administered orally and/or intravenously.
(§1) The degree of effectiveness is determined by quantitative determination of the nematode eggs excreted with the faeces before and after the treatment.
(§2) If, after the treatment, egg excretion stops completely, the nematodes were aborted or damaged to such an extent that they no longer produce eggs (dosis effectiva).

Haemonchus contortus = assay: In vivo nematode test Haemonchus contortus/sheep; details: experimentally infected sheep, treated after prepatent period; pure active compound orally and/or intravenously; dose at which nematode egg excretion with the faeces stops completely
Method: Haemonchus contortus/Sheep
Sheep which have been infected experimentally with Haemonchus contortus were treated after the prepatent period had elapsed. The active compounds in the form of the pure active compound were administered orally and/or intravenously.
as §1, §2

CC[C@H](C)[C@H]1C(=O)O[C@H](C)C(=O)N(C)[C@@H](C)C(=O)O[C@H](C)C(=O)N(C)[C@@H]([C@@H](C)CC)C(=O)O[C@H](C)C(=O)N1C [Example 1, Cyclo(-N-methyl-L-alanyl-D-lactyl-N-methyl-L-isoleucyl-D-lactyl-N-methyl-L- isoleucyl-D-lactyl-)]
Dosis effectiva [1]: 10 mg/kg | Dosis effectiva (Haemonchus contortus): 10 mg/kg
